Like-named read-outs stand apart in the source and are kept apart here.
How the values were obtained:
[1] = tested on: T. gondii RH strain (RH-Tub-eYFP) tachyzoites; assay: microbe, parasite or virus in culture; format: cell-based, Toxoplasma gondii; conditions: 72 h; for percent parasite growth at 2 µg/mL: Toxoplasma gondii
[2] = tested on: P. falciparum 3D7 parasites; assay: P. falciparum growth inhibition assay, 2-cycle (120 h treatment), delayed-death screen and dose-response; format: cell-based, Plasmodium falciparum; conditions: for activity at 2 µg/mL: Plasmodium falciparum
[3] = tested on: P. falciparum 3D7 parasites; assay: P. falciparum growth inhibition assay, 1-cycle (72 h treatment), SYBR DNA staining (library screen at 2 μg/mL and dose-response); format: cell-based, Plasmodium falciparum; conditions: for activity at 2 µg/mL: Plasmodium falciparum
[4] = library screen at 2 μg/mL, % growth, replicate 1
[5] = library screen at 2 μg/mL, % growth, replicate 2
[6] = library screen at 2 μg/mL, 120 h, % growth, replicate 1
[7] = library screen at 2 μg/mL, 120 h, % growth, replicate 2
[8] = library screen at 2 μg/mL, 72 h, % growth, replicate 1
[9] = library screen at 2 μg/mL, 72 h, % growth, replicate 2
[10] = T. gondii, screen at 2 μg/mL, replicate 1, read-out: Tg_72h_%Growth_Rep1
[11] = T. gondii, screen at 2 μg/mL, replicate 2, read-out: Tg_72h_%Growth_Rep2
[12] = 3D7, 120 h, P. falciparum, 120 h, screen at 2 μg/mL, replicate 1, read-out: Pf_120h_%Growth_Rep1
[13] = 3D7, 120 h, P. falciparum, 120 h, screen at 2 μg/mL, replicate 2, read-out: Pf_120h_%Growth_Rep2
[14] = 3D7, 72 h, P. falciparum, 72 h, screen at 2 μg/mL, replicate 1, read-out: Pf_72h_%Growth_Rep1
[15] = 3D7, 72 h, P. falciparum, 72 h, screen at 2 μg/mL, replicate 2, read-out: Pf_72h_%Growth_Rep2

## C/C=C/[C@@H]1C=C[C@@H]2C[C@H](C)CC[C@H]2[C@]1(C)/C(O)=C1/C(=O)[C@@H](CO)N(C)C1=O [Epiequisetin]
[1]; [4]
  Tg_72h_%Growth_Rep1: 129.84%
[1]; [5]
  Tg_72h_%Growth_Rep2: 98.00%
[2]; [6]
  Pf_120h_%Growth_Rep1: 86.15%
[2]; [7]
  Pf_120h_%Growth_Rep2: 82.07%
[3]; [8]
  Pf_72h_%Growth_Rep1: 86.43%
[3]; [9]
  Pf_72h_%Growth_Rep2: 84.23%

## COC(=O)[C@]1(Cc2ccc(O)c(CC=C(C)C)c2)OC(=O)C(O)=C1c1ccc(O)cc1 [Butyrolactone I]
[1]; [10]
  percent parasite growth at 2 µg/mL: 85.8%
[1]; [11]
  percent parasite growth at 2 µg/mL: 88.7%
[2]; [12]
  activity at 2 µg/mL: 147%
[2]; [13]
  activity at 2 µg/mL: 92.6%
[3]; [14]
  activity at 2 µg/mL: 72.4%
[3]; [15]
  activity at 2 µg/mL: 88.5%

## CC[C@H]1OC(=O)[C@H](C)[C@@H](O[C@H]2C[C@@](C)(OC)[C@@H](O)[C@H](C)O2)[C@H](C)[C@@H](O[C@@H]2O[C@H](C)C[C@H]([N+](C)(C)[O-])[C@H]2O)[C@](C)(O)C[C@@H](C)C(=O)[C@H](C)[C@@H](O)[C@]1(C)O [Erythromycin A N-oxide]
[1]; [4]
  Tg_72h_%Growth_Rep1: 107.95%
[1]; [5]
  Tg_72h_%Growth_Rep2: 98.15%
[2]; [6]
  Pf_120h_%Growth_Rep1: 82.07%
[2]; [7]
  Pf_120h_%Growth_Rep2: 80.30%
[3]; [8]
  Pf_72h_%Growth_Rep1: 82.02%
[3]; [9]
  Pf_72h_%Growth_Rep2: 85.53%

## CN(C)c1ncnc2c1ncn2[C@@H]1O[C@H](CO)[C@@H](N)[C@H]1O [Puromycin aminonucleoside]
[1]; T. gondii, parasite screen 2 μg/mL, % growth, replicate 1, read-out: Tg_72h_%Growth_Rep1
  percent parasite growth at 2 µg/mL: -2.04%
[1]; T. gondii, parasite screen 2 μg/mL, % growth, replicate 2, read-out: Tg_72h_%Growth_Rep2
  percent parasite growth at 2 µg/mL: 0.2%
[2]; 3D7, 120 h, P. falciparum, 120 h, parasite screen 2 μg/mL, % growth, replicate 1, read-out: Pf_120h_%Growth_Rep1
  activity at 2 µg/mL: 69.5%
[2]; 3D7, 120 h, P. falciparum, 120 h, parasite screen 2 μg/mL, % growth, replicate 2, read-out: Pf_120h_%Growth_Rep2
  activity at 2 µg/mL: 57.6%
[3]; 3D7, 72 h, P. falciparum, 72 h, parasite screen 2 μg/mL, % growth, replicate 1, read-out: Pf_72h_%Growth_Rep1
  activity at 2 µg/mL: 78%
[3]; 3D7, 72 h, P. falciparum, 72 h, parasite screen 2 μg/mL, % growth, replicate 2, read-out: Pf_72h_%Growth_Rep2
  activity at 2 µg/mL: 105%

## C[C@@H]1C[C@H](C)C[C@H](C)[C@@H](O)CC(=O)O[C@H]([C@@H]2CCC[C@H]2C(=O)O)C/C=C/C=C(/C#N)[C@H](O)[C@@H](C)C1 [Borrelidin]
[1]; [10]
  percent parasite growth at 2 µg/mL: 0.76%
[1]; [11]
  percent parasite growth at 2 µg/mL: 1.62%
[2]; 3D7, P. falciparum, 120 h, screen at 2 μg/mL, replicate 1, read-out: Pf_120h_%Growth_Rep1
  activity at 2 µg/mL: 4.36%
[2]; 3D7, P. falciparum, 120 h, screen at 2 μg/mL, replicate 2, read-out: Pf_120h_%Growth_Rep2
  activity at 2 µg/mL: 5.57%
[3]; 3D7, P. falciparum, 72 h, screen at 2 μg/mL, replicate 1, read-out: Pf_72h_%Growth_Rep1
  activity at 2 µg/mL: 2.87%
[3]; 3D7, P. falciparum, 72 h, screen at 2 μg/mL, replicate 2, read-out: Pf_72h_%Growth_Rep2
  activity at 2 µg/mL: -1.49%

## CCCCCCCCCCCCCCCC(=O)NC1CCOC1=O (stereo not drawn) [BIA-H1500]
[1]; T. gondii RH, library screen at 2 μg/mL, % growth, replicate 1
  Tg_72h_%Growth_Rep1: 108.53%
[1]; T. gondii RH, library screen at 2 μg/mL, % growth, replicate 2
  Tg_72h_%Growth_Rep2: 91.16%
[2]; P. falciparum 3D7, 120 h, library screen at 2 μg/mL, % growth, replicate 1
  Pf_120h_%Growth_Rep1: 95.21%
[2]; P. falciparum 3D7, 120 h, library screen at 2 μg/mL, % growth, replicate 2
  Pf_120h_%Growth_Rep2: 120.58%
[3]; P. falciparum 3D7, 72 h, library screen at 2 μg/mL, % growth, replicate 1
  Pf_72h_%Growth_Rep1: 91.73%
[3]; P. falciparum 3D7, 72 h, library screen at 2 μg/mL, % growth, replicate 2
  Pf_72h_%Growth_Rep2: 78.97%

## O=C1N[C@@H](Cc2ccccc2)C(=O)N2CCC[C@@H]12 [Cyclo(L-Phe-L-Pro)]
[1]; T. gondii, screen at 2 μg/mL, replicate 1
  Tg_72h_%Growth_Rep1: 128.14%
[1]; T. gondii, screen at 2 μg/mL, replicate 2
  Tg_72h_%Growth_Rep2: 102.31%
[2]; P. falciparum, 120 h, screen at 2 μg/mL, replicate 1
  Pf_120h_%Growth_Rep1: 82.75%
[2]; P. falciparum, 120 h, screen at 2 μg/mL, replicate 2
  Pf_120h_%Growth_Rep2: 99.85%
[3]; P. falciparum, 72 h, screen at 2 μg/mL, replicate 1
  Pf_72h_%Growth_Rep1: 92.82%
[3]; P. falciparum, 72 h, screen at 2 μg/mL, replicate 2
  Pf_72h_%Growth_Rep2: 90.35%

## C/C=C/[C@H]1O[C@@](O)([C@@H](C)[C@H](O)[C@H](C)[C@H]2OC(=O)/C(OC)=C/C(C)=C/[C@@H](C)[C@@H](O)[C@@H](CC)[C@@H](O)[C@H](C)C/C(C)=C/C=C/[C@@H]2OC)C[C@@H](O[C@H]2C[C@@H](O)[C@H](OC(N)=O)[C@@H](C)O2)[C@@H]1C [Concanamycin A]
[1]; [10]
  percent parasite growth at 2 µg/mL: -1.66%
[1]; [11]
  percent parasite growth at 2 µg/mL: 0.56%
[2]; [12]
  activity at 2 µg/mL: 0.77%
[2]; [13]
  activity at 2 µg/mL: 5.18%
[3]; [14]
  activity at 2 µg/mL: 2.64%
[3]; [15]
  activity at 2 µg/mL: 2.16%

— publication PMC12396409, “Screening and hit evaluation of a microbial metabolite library against the pathogenic Plasmodium falciparum and Toxoplasma gondii parasites” (International Journal for Parasitology: Drugs and Drug …, 2025)
